These compounds were tested against T1, Purine nucleoside phosphorylase (Mycobacterium tuberculosis, UniProt P9WP01) (assay: Binding affinity to Mycobacterium tuberculosis purine nucleoside phosphorylase by spectrophotometric analysis).
T1 sequence (P9WP01 whole entry): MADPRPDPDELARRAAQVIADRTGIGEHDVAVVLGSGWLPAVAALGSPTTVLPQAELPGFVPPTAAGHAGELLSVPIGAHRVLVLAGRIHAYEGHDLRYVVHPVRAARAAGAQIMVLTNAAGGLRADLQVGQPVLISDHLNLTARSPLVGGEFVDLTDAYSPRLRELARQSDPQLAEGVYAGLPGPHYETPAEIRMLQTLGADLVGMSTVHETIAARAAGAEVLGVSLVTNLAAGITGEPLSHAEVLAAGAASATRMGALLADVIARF

| Compound | Kd [µM] |
| --- | --- |
| CSc1nc(N)nc2[nH]cnc12 | 316 |
| CSc1ncnc2c1ncn2[C@@H]1O[C@H](CO)[C@@H](O)[C@H]1O | 12.6 |
| Nc1nc2c(ncn2COCCO)c(=O)[nH]1 [ACYCLOVIR] | 12.6 |
| Oc1ncnc2[nH]ncc12 [ALLOPURINOL] | 1000 |
| Nc1nc(O)c2ncn(COC(CO)CO)c2n1 [GANCICLOVIR] | 15.8 |
| Sc1ncnc2nc[nH]c12 [MERCAPTOPURINE ANHYDROUS] | 79.4 |
| O=c1[nH]c(=O)c2c[nH]nc2[nH]1 [OXYPURINOL] | 794 |

— ChEMBL document CHEMBL1177645, “Crystallographic and docking studies of purine nucleoside phosphorylase from Mycobacterium tuberculosis” (Bioorg Med Chem, 2010)
